Here are results for 31 compounds from patent publication US20240287080A1 (IDEAYA Biosciences Inc., priority 2021, published 2024).

Where only a bound is given, the exact number is not on record here.

One assay deals with T1, Pol theta (1-899) (Homo sapiens, UniProt O75417).
T1 construct: Pol theta (1-899) (5 nM) in assay buffer
T1 sequence (O75417 1-899): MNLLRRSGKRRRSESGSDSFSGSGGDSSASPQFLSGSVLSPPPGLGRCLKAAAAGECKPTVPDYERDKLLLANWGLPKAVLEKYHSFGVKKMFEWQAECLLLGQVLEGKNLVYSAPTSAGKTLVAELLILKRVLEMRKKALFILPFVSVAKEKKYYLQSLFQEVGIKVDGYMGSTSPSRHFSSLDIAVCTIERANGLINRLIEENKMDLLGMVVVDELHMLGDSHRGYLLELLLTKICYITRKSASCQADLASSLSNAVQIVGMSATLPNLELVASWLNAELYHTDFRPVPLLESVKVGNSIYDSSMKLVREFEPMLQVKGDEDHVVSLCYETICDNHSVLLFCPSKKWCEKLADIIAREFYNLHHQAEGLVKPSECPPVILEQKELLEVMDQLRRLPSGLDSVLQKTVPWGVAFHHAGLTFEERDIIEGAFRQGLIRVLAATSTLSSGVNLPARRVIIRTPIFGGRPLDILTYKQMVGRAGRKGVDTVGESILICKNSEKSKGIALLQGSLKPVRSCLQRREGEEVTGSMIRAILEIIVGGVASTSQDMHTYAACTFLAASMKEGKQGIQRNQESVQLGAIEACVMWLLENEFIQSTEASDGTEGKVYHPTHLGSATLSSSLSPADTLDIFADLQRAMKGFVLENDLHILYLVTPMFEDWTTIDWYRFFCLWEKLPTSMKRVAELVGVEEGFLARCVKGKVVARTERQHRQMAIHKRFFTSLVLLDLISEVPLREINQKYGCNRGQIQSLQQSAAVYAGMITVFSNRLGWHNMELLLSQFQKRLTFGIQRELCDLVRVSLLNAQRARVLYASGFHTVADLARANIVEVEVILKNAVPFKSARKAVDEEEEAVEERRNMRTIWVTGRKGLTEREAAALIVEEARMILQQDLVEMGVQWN
Description: Pol theta ATPase activity, NADH oxidation-coupled enzymatic assay (ATPase NADH coupling: Standard Screening: hPolQ). Particulars: Table 5; Pol theta (1-899) 5 nM, ATP, dT50 ssDNA. The assay is classed as biochemical. The gist of the method:
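NADH-coupled ATPase readout: 5 nM Pol theta (1-899) preincubated 15 min with 10-point compound series in Tris pH 7.80, KCl, MgCl2, DTT, BSA, Tween, glycerol, then 100 μM ATP, 300 nM 50-mer poly-dT ssDNA, NADH, PEP, LDH and PK added (stock levels). A340 followed 60 min; slopes fit four-parameter for IC50.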
A word on the IC50: it is the concentration at which inhibition is half-maximal. Read a low IC50 as higher potency. `COc1nnc(NC(=O)c2cn3c(C)ncc3cc2-c2cc(Cl)ncc2OC)s1` [Example 103, 7-(2-chloro-5-methoxypyridin-4-yl)-N-(5-methoxy-1,3,4-thiadiazol-2-yl)-3-methylimidazo(1,5-a)pyridine-6-carboxamide]: the IC50 is ≤ 200 nM.

Compound `COc1nnc(NC(=O)c2cnc(C)cc2-c2cc3cn[nH]c3cc2OC)s1` [Example 104, N-(5-methoxy-1,3,4-thiadiazol-2-yl)-4-(6-methoxy-1H-indazol-5-yl)-6-methylnicotinamide] showed an IC50 of 200 to 500 nM.

For the compound `COc1nnc(NC(=O)c2cnc(C)cc2-c2ccc3nscc3c2)s1` [Example 105, 4-(benzo(c)isothiazol-5-yl)-N-(5-methoxy-1,3,4-thiadiazol-2-yl)-6-methylnicotinamide], the IC50 was in the range of 1000 to 10000 nM.

On to `COc1nnc(NC(=O)c2c[nH]nc2-c2cc(Cl)ncc2OC)s1` [Example 109, 3-(2-chloro-5-methoxypyridin-4-yl)-N-(5-methoxy-1,3,4-thiadiazol-2-yl)-1H-pyrazole-4-carboxamide], for which the IC50 was in the range of 1000 to 10000 nM.

On to `COc1cnc(Br)cc1-c1cc(C)ncc1C(=O)Nc1nnc(O[C@H]2CCOC2)s1` [Example 122, (S)-2′-bromo-5′-methoxy-6-methyl-N-(5-((tetrahydrofuran-3-yl)oxy)-1,3,4-thiadiazol-2-yl)-(4,4′-bipyridine)-3-carboxamide], for which the IC50 is ≤ 200 nM.

With `COc1nnc(NC(=O)c2cnc(C)cc2-c2cnn3c2OCC3)s1` [Example 126, 4-(2,3-dihydropyrazolo(5,1-b)oxazol-7-yl)-N-(5-methoxy-1,3,4-thiadiazol-2-yl)-6-methylnicotinamide], the IC50 was 1000 to 10000 nM.

As for `COc1cnc(Cl)c(F)c1-c1cc(C)ncc1C(=O)Nc1nnc(O[C@H]2C[C@@H](O)C2)s1` [Example 129, 2′-chloro-3′-fluoro-N-(5-((1s,3s)-3-hydroxycyclobutoxy)-1,3,4-thiadiazol-2-yl)-5′-methoxy-6-methyl-(4,4′-bipyridine)-3-carboxamide], the IC50 is ≤ 200 nM.

For `COc1cnc(Cl)cc1-c1cc(C2CCCC2)ncc1C(=O)Nc1nnc(O[C@@H]2CCOC2)s1` [Example 134, (R)-2′-chloro-6-cyclopentyl-5′-methoxy-N-(5-((tetrahydrofuran-3-yl)oxy)-1,3,4-thiadiazol-2-yl)-(4,4′-bipyridine)-3-carboxamide], the IC50 lay within 500 to 1000 nM.

`COc1cnc(Cl)cc1-c1cc(C)ncc1C(=O)Nc1nnc(OC2CC3(COC3)C2)s1` [Example 135, N-(5-((2-oxaspiro (3.3)heptan-6-yl)oxy)-1,3,4-thiadiazol-2-yl)-2′-chloro-5′-methoxy-6-methyl-(4,4′-bipyridine)-3-carboxamide]: the half-maximal inhibitory concentration (IC50) was ≤ 200 nM.

For the compound `COCc1cc(-c2cc(Cl)ncc2OC)c(C(=O)Nc2nnc(O[C@@H]3CCOC3)s2)cn1` [Example 142, (R)-2′-chloro-5′-methoxy-6-(methoxymethyl)-N-(5-((tetrahydrofuran-3-yl)oxy)-1,3,4-thiadiazol-2-yl)-(4,4′-bipyridine)-3-carboxamide], the IC50 is ≤ 200 nM.

Regarding `COc1nnc(NC(=O)c2cnc(C3CCCC3)cc2-c2cc(Cl)ncc2OC)s1` [Example 143, 2′-chloro-6-cyclopentyl-5′-methoxy-N-(5-methoxy-1,3,4-thiadiazol-2-yl)-(4,4′-bipyridine)-3-carboxamide], the IC50 fell in the range of 200 to 500 nM.

In the case of `COCc1cc(-c2cc(Cl)ncc2OC)c(C(=O)Nc2nnc(OC)s2)cn1` [Example 158, 2′-chloro-5′-methoxy-N-(5-methoxy-1,3,4-thiadiazol-2-yl)-6-(methoxymethyl)-(4,4′-bipyridine)-3-carboxamide], the IC50 was ≤ 200 nM.

With `COc1cnc(Cl)cc1-c1cc(C)ncc1C(=O)Nc1nnc(OC2CCCC2OC)s1` (stereo not shown) [Example 163, 2′-chloro-5′-methoxy-N-(5-((2-methoxycyclopentyl)oxy)-1,3,4-thiadiazol-2-yl)-6-methyl-(4,4′-bipyridine)-3-carboxamide], the IC50 is ≤ 200 nM.

Turning to `COc1cnc(Cl)cc1-c1cc(C)ncc1C(=O)Nc1nnc(O[C@H]2CC[C@H](CO)CC2)s1` [Example 168, 2′-chloro-N-(5-(((1r,4r)-4-(hydroxymethyl)cyclohexyl)oxy)-1,3,4-thiadiazol-2-yl)-5′-methoxy-6-methyl-(4,4′-bipyridine)-3-carboxamide], the IC50 was ≤ 200 nM.

Consider `COc1cnc(Cl)cc1-c1cc(C)ncc1C(=O)Nc1nnc(O[C@H]2CC[C@@H](CO)CC2)s1` [Example 169, 2′-chloro-N-(5-(((1s,4s)-4-(hydroxymethyl)cyclohexyl)oxy)-1,3,4-thiadiazol-2-yl)-5′-methoxy-6-methyl-(4,4′-bipyridine)-3-carboxamide], for which the IC50 was ≤ 200 nM.

On to `COc1cnc(Cl)cc1-c1cc(C)ncc1C(=O)Nc1nnc(O[C@H]2CC[C@@H](C(C)(C)O)CC2)s1` [Example 175, 2′-chloro-N-(5-(((1s,4s)-4-(2-hydroxypropan-2-yl)cyclohexyl)oxy)-1,3,4-thiadiazol-2-yl)-5′-methoxy-6-methyl-(4,4′-bipyridine)-3-carboxamide], for which the IC50 is ≤ 200 nM.

For the compound `COc1cnc(Cl)cc1-c1cc(C)ncc1C(=O)Nc1nnc(O[C@H]2CC[C@H](C(C)(C)O)CC2)s1` [Example 187, 2′-chloro-N-(5-(((1r,4r)-4-(2-hydroxypropan-2-yl)cyclohexyl)oxy)-1,3,4-thiadiazol-2-yl)-5′-methoxy-6-methyl-(4,4′-bipyridine)-3-carboxamide], the IC50 was ≤ 200 nM.

For the compound `COc1cnc(Br)cc1-c1cc(C)ncc1C(=O)Nc1nnc(OC2COC2)s1` [Example 188, 2′-bromo-5′-methoxy-6-methyl-N-(5-(oxetan-3-yloxy)-1,3,4-thiadiazol-2-yl)-(4,4′-bipyridine)-3-carboxamide], the IC50 is ≤ 200 nM.

Consider `COc1cnc(Cl)cc1-c1cc(OC2CC2)ncc1C(=O)Nc1nnc(O[C@@H]2CCOC2)s1` [Example 193, (R)-2′-chloro-6-cyclopropoxy-5′-methoxy-N-(5-((tetrahydrofuran-3-yl)oxy)-1,3,4-thiadiazol-2-yl)-(4,4′-bipyridine)-3-carboxamide], for which the half-maximal inhibitory concentration (IC50) lay within 500 to 1000 nM.

For the compound `COc1cnc(Br)cc1-c1cc(C)ncc1C(=O)Nc1nnc(O[C@H]2CC[C@H](O)CC2)s1` [Example 194, 2′-bromo-N-(5-(((1r,4r)-4-hydroxycyclohexyl)oxy)-1,3,4-thiadiazol-2-yl)-5′-methoxy-6-methyl-(4,4′-bipyridine)-3-carboxamide], the IC50 was ≤ 200 nM.

On to `Cc1cc(-c2cc(Br)ncc2OC(F)F)c(C(=O)Nc2nnc(O[C@@H]3CCOC3)s2)cn1` [Example 195, (R)-2′-bromo-5′-(difluoromethoxy)-6-methyl-N-(5-((tetrahydrofuran-3-yl)oxy)-1,3,4-thiadiazol-2-yl)-(4,4′-bipyridine)-3-carboxamide], for which the IC50 was ≤ 200 nM.

`COc1nnc(NC(=O)c2cnc(OC3CC3)cc2-c2cc(Cl)ncc2OC)s1` [Example 196, 2′-chloro-6-cyclopropoxy-5′-methoxy-N-(5-methoxy-1,3,4-thiadiazol-2-yl)-(4,4′-bipyridine)-3-carboxamide] gave an IC50 of 500 to 1000 nM.

With `COc1cnc(Br)c(F)c1-c1cc(C)ncc1C(=O)Nc1nnc(O[C@@H]2CCOC2)s1` [Example 201, 2′-bromo-3′-fluoro-5′-methoxy-6-methyl-N-(5-(((R)-tetrahydrofuran-3-yl)oxy)-1,3,4-thiadiazol-2-yl)-(4,4′-bipyridine)-3-carboxamide], the half-inhibitory concentration (IC50) was ≤ 200 nM.

Consider `COc1cnc(C)c(F)c1-c1cc(C)ncc1C(=O)Nc1nnc(O[C@H]2CC[C@H](O)CC2)s1` [Example 202, 3′-fluoro-N-(5-(((1r,4r)-4-hydroxycyclohexyl)oxy)-1,3,4-thiadiazol-2-yl)-5′-methoxy-2′,6-dimethyl-(4,4′-bipyridine)-3-carboxamide], for which the IC50 is ≤ 200 nM.

For `Cc1cc(-c2cc(Cl)ncc2OC(F)F)c(C(=O)Nc2nnc(O[C@H]3CC[C@H](O)CC3)s2)cn1` [Example 203, 2′-chloro-5′-(difluoromethoxy)-N-(5-(((1r,4r)-4-hydroxycyclohexyl)oxy)-1,3,4-thiadiazol-2-yl)-6-methyl-(4,4′-bipyridine)-3-carboxamide], the IC50 is ≤ 200 nM.

The same assay, now with this note: Table 5; values given as bound; Pol theta (1-899) 5 nM, ATP, dT50 ssDNA.
`COc1nnc(NC(=O)c2nn(C)cc2-c2cc(Cl)ncc2OC)s1` [Example 107, 4-(2-chloro-5-methoxypyridin-4-yl)-N-(5-methoxy-1,3,4-thiadiazol-2-yl)-1-methyl-1H-pyrazole-3-carboxamide]: the IC50 was > 10000 nM.

With `COc1nnc(NC(=O)c2cn(C)nc2-c2cc(Cl)ncc2OC)s1` [Example 110, 3-(2-chloro-5-methoxypyridin-4-yl)-N-(5-methoxy-1,3,4-thiadiazol-2-yl)-1-methyl-1H-pyrazole-4-carboxamide], the IC50 was > 10000 nM.

As for `COc1nnc(NC(=O)c2cn3c(C)cnc3cc2-c2c(F)cccc2OC)s1` [Example 120, 7-(2-fluoro-6-methoxyphenyl)-N-(5-methoxy-1,3,4-thiadiazol-2-yl)-3-methylimidazo(1,2-a)pyridine-6-carboxamide], the IC50 was > 10000 nM.

Take `COc1nnc(NC(=O)c2cc(CO)ncc2-c2c(F)cccc2OC)s1` [Example 121, 5-(2-fluoro-6-methoxyphenyl)-2-(hydroxymethyl)-N-(5-methoxy-1,3,4-thiadiazol-2-yl)isonicotinamide]: the IC50 was > 10000 nM.

As to `COc1nnc(NC(=O)c2cnc(C)cc2-c2cccn3ncnc23)s1` [Example 123, 4-((1,2,4)triazolo(1,5-a)pyridin-8-yl)-N-(5-methoxy-1,3,4-thiadiazol-2-yl)-6-methylnicotinamide], the IC50 was > 10000 nM.

For `COc1nnc(NC(=O)c2cnc(CN3CC(OC)C3)cc2-c2cc(Cl)ncc2OC)s1` [Example 144, 2′-chloro-5′-methoxy-N-(5-methoxy-1,3,4-thiadiazol-2-yl)-6-((3-methoxyazetidin-1-yl)methyl)-(4,4′-bipyridine)-3-carboxamide], the IC50 is > 10000 nM.
